In brackets after ≈: the same amount, converted by molar mass.
What was measured:
[1] = target: T1, Recombinant human MMP12 catalytic domain (Homo sapiens, UniProt P39900); test: MMP12 isolated enzyme assay; format: biochemical; details: read-out: hMMP12 IC50
T1 construct: Recombinant human MMP12 catalytic domain; made in house
Description: Recombinant human MMP12 catalytic domain may be expressed and purified as described by Parkar A. A. et al, (2000), Protein Expression and Purification, 20, 152. The purified enzyme can be used to monitor inhibitors of activity as follows: MMP12 (50 ng/ml final concentration) is incubated for 60 minutes at room temperature with the synthetic substrate Mca-Pro-Cha-Gly-Nva-His-Ala-Dpa-NH2 (10 μM) in assay buffer (0.1M “Tris-HCl”™ buffer, pH 7.3 containing 0.1M NaCl, 20 mM CaCl2, 0.020 mM ZnCl and 0.05% (w/v) “Brij 35”™ detergent) in the presence (10 concentrations) or absence of inhibitors. Activity is determined by measuring the fluorescence at λex 320 nm and λem 405 nm. Percent inhibition is calculated as follows: % Inhibition is equal to the [Fluorescenceplus inhibitor−Fluorescencebackground] divided by the [Fluorescenceminus inhibitor−Fluorescencebackground]. MMP8

[2] = target: T2, Recombinant human MMP9 catalytic domain (Homo sapiens, UniProt P14780); test: MMP9 isolated enzyme assay; format: biochemical; details: read-out: hMMP9 IC50
T2 sequence (P14780 with tags, fused parts or gaps DEL216-390 limits assumed): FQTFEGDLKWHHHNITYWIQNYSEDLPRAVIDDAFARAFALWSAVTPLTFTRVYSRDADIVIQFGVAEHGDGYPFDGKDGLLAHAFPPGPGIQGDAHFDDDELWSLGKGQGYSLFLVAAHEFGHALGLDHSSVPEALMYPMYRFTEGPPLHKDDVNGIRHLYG
Description: Recombinant human MMP9 catalytic domain was expressed and then purified by Zn chelate column chromatography followed by hydroxamate affinity column chromatography. The enzyme can be used to monitor inhibitors of activity as follows: MMP9 (5 ng/ml final concentration) is incubated for 30 minutes at RT with the synthetic substrate Mca-Pro-Cha-Gly-Nva-His-Ala-Dpa-NH2 (5 μM) in assay buffer (0.1M “Tris-HCl”™ buffer, pH 7.3 containing 0.1M NaCl, 20 mM CaCl2, 0.020 mM ZnCl and 0.05% (w/v) “Brij 35”™ detergent) in the presence (10 concentrations) or absence of inhibitors. Activity is determined by measuring the fluorescence at λex 320 nm and λem 405 nm. Percent inhibition is calculated as follows: % Inhibition is equal to the [Fluorescenceplus inhibitor−Fluorescencebackground] divided by the [Fluorescenceminus inhibitor−Fluorescencebackground]. MMP14
A protocol for testing against other matrix metalloproteinases, including MMP9, using expressed and purified pro MMP is described, for instance, by C. Graham Knight et al., (1992) FEBS Lett., 296(3), 263-266.

MMP8 = target: T3, MMP8 (Homo sapiens, UniProt P22894); test: MMP8 isolated enzyme assay; format: biochemical; details: read-out: hMMP8 IC50
T3 construct: purchased Calbiochem
Description: Purified pro-MMP8 is purchased from Calbiochem. The enzyme (at 10 μg/ml) is activated by p-amino-phenyl-mercuric acetate (APMA) at 1 mM for 2.5 h, 35° C. The activated enzyme can be used to monitor inhibitors of activity as follows: MMP8 (200 ng/ml final concentration) is incubated for 90 minutes at 35° C. (80% H2O) with the synthetic substrate Mca-Pro-Cha-Gly-Nva-His-Ala-Dpa-NH2 (12.5 μM) in assay buffer (0.1M “Tris-HCl”™ buffer, pH 7.5 containing 0.1M NaCl, 30 mM CaCl2, 0.040 mM ZnCl and 0.05% (w/v) “Brij 35”™ detergent) in the presence (10 concentrations) or absence of inhibitors. Activity is determined by measuring the fluorescence at λex 320 nm and λem 405 nm. Percent inhibition is calculated as follows: % Inhibition is equal to the [Fluorescenceplus inhibitor−Fluorescencebackground] divided by the [Fluorescenceminus inhibitor−Fluorescencebackground]. MMP9

[3] = target: T4, Recombinant human MMP14 catalytic domain (Homo sapiens, UniProt P50281); test: MMP14 isolated enzyme assay; format: biochemical; details: read-out: hMMP14 IC50
T4 construct: Recombinant human MMP14 catalytic domain; made in house
Description: Recombinant human MMP14 catalytic domain may be expressed and purified as described by Parkar A. A. et al, (2000), Protein Expression and Purification, 20, 152. The purified enzyme can be used to monitor inhibitors of activity as follows: MMP14 (10 ng/ml final concentration) is incubated for 60 minutes at room temperature with the synthetic substrate Mca-Pro-Cha-Gly-Nva-His-Ala-Dpa-NH2 (10 μM) in assay buffer (0.1M “Tris-HCl” (trade mark) buffer, pH 7.5 containing 0.1M NaCl, 20 mM CaCl2, 0.020 mM ZnCl and 0.05% (w/v) “Brij 35”™ detergent) in the presence (5 concentrations) or absence of inhibitors. Activity is determined by measuring the fluorescence at λex 320 nm and λem 405 nm. Percent inhibition is calculated as follows: % Inhibition is equal to the [Fluorescenceplus inhibitor−Fluorescencebackground] divided by the [Fluorescenceminus inhibitor−Fluorescencebackground].

[4] = Solubility in 0.1M phosphate buffer, pH 7.4; format: physicochemical; details: aqueous buffer, thermodynamic from solid, pH 7.4, 20° C.
Description: Protocol for Determination of Solubility
The test compound (1 mg) was weighed into a 2 mL glass vial with a screw cap and 0.1M phosphate buffer pH 7.4. (1.00 mL) was added. The sample vial was then sonicated for about 10 minutes and then placed on a shake board overnight at 20° C. The contents of the sample vial were then filtered through a Millipore Millex-LH 0.45 μm filter into a new 2 mL glass vial to give a clear solution. The clear solution (40 μL) was transferred to a new 2 mL glass vial and diluted with 0.1M phosphate buffer, pH 7.4 (960 μL).
A standard calibration curve for each particular test compound was established using solutions of known concentration. These solutions of known concentration were normally chosen to have concentrations of ˜10 μg/mL and ˜50 μg/mL. They were prepared by dissolving a known weight of the compound in 99.5% ethanol (500 μL) and then sonicating for one minute if necessary. If the compound was still not completely dissolved, DMSO (500 μL) was added and the mixture sonicated for an additional one minute. The resulting solution was then diluted to the appropriate volume with a mixture of acetonitrile/100 mM ammonium acetate pH 5.5 20-50/80-50. If necessary, a further, more dilute, standard solution was prepared by dilution.

plasma protein = test: Plasma protein binding by ultrafiltration; format: in vitro ADME; details: 10 μM
Description: Plasma protein binding was determined by ultrafiltration in an automated 96 well format assay. On each test occasion the plasma protein binding of a reference compound (budesonide) was monitored in parallel.
Test compounds (10 mM dissolved in DMSO) were added to plasma to a final concentration of 10 μM and equilibrated at room temperature for 10 minutes. 350 μL of the plasma was transferred to an ultrafiltration plate, Microcon-96 (10 kDa cutoff, Millipore). The ultrafiltration plate was centrifuged at 3000 G for 70 minutes at room temperature. After centrifugation, the concentration of the compounds in the obtained plasma water (the unbound fraction) was determined by LC-MS/MS using a 3-point calibration curve and compared to the concentration in the original spiked plasma.
The analyses were performed using a gradient chromatographic system with acetic acid/acetonitrile as mobile phases. The detection was done using a triple quadropole mass spectrometer, API3000 or API4000, from Applied Biosystems, with an electrospray interface.

T1 sequence (P39900 106-263 limits assumed): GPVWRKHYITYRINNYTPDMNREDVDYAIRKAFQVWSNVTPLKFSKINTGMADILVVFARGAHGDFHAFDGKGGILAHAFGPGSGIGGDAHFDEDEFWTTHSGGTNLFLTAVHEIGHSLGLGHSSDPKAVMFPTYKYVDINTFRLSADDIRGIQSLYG
T3 sequence (P22894 101-467): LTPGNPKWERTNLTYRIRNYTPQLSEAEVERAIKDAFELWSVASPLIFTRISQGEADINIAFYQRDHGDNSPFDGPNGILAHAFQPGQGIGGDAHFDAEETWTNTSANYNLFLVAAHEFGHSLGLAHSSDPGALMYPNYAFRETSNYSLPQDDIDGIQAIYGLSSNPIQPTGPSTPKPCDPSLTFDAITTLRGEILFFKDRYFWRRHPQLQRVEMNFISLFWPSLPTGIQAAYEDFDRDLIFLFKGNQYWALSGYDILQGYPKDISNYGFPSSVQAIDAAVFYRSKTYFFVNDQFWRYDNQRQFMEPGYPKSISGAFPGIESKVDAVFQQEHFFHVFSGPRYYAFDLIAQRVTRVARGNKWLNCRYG

Structure (SMILES)	IC50 [1] [nM]	IC50 [2] [nM]	IC50 (MMP8) [nM]	IC50 [3] [nM]	solubility [4] [µM]	Protein binding (% free) (plasma protein)
C[C@]1(CS(=O)(=O)N2CC=C(C#Cc3ccccn3)CC2)NC(=O)NC1=O [WO 02/074767, page 119, (5S)-5-methyl-5-({[4-(pyridin-2-ylethynyl)-3,6-dihydropyridin-1(2H)-yl]sulfonyl}-methyl)-imidazolidine-2,4-dione, reference compound]	140	11200	> 1000	> 1000	1600 (≈ 598 µg/mL)	–
CCc1ccc(C#CC2=CCN(S(=O)(=O)C[C@@]3(C)NC(=O)NC3=O)CC2)cn1 [Example 4, (5S)-5-({[4-[(6-Ethylpyridin-3-yl)ethynyl]-3,6-dihydropyridin-1-(2H)-yl]sulfonyl}methyl)-5-methylimidazolidine-2,4-dione]	3	8	780	> 10000	1300 (≈ 522 µg/mL)	9.7
C[C@]1(CS(=O)(=O)N2CC=C(C#Cc3ccc(C(F)(F)F)nc3)CC2)NC(=O)NC1=O [Example 5, (5S)-5-Methyl-5-({[4-{[6-(trifluoromethyl)pyridin-3-yl]ethynyl}-3,6-dihydropyridin-1(2H)-yl]sulfonyl}methyl)imidazolidine-2,4-dione]	5	7	430	> 10000	41 (≈ 18.1 µg/mL)	–

— patent US20080004317A1, “Compounds” (AstraZeneca AB, priority 2004, published 2008)
